Reference: US12427128B2, “Sensorineural hair cell differentiation” (Massachusetts Eye and Ear Infirmary, priority 2014, dated 2025)

Key:
organ of Corti explants = test: Hair cell number in organ of Corti explants from Atoh1-GFP mice; type: cell-based, mouse; conditions: for new hair cells in organ of Corti explants: P1-P2 explants, 48 h
Description: In this example, modulation of Pax2 and Sox2 expression in the differentiating inner ear cells included reducing Sox2 expression levels while increasing Pax2 expression level. Sox2 expression was modulated using DAFT (Jeon et al., j. Neurosci., 31:8351-8358 (2011)). Pax2 expression was modulated using FGF2 (Adamska et al., Mech. Dev., 109:303-313 (2001); Mansukhani et al., J. Cell. Biol., 168:1065-1076 (2005)). DAPT was used to decrease Sox2 and FGF2 to activate Pax2 expression in inner ear stein cells (see FIG. 12A). 4th-5th generation spheres or OC explants (P1-P2) were plated in 4-well plates (Greiner) on round 10 mm glass coverslips coated with poly-L-lysine (Cultrex) and attachment took place overnight in 10% FBS/DMEM-high glucose (GIBCO). Attachment was ensured with microscopic inspection and the medium was changed to serum-free DMEM-high glucose/F12 (mixed 1:1, GIBCO) and N2 and B27 (Invitrogen). Spheres were differentiated for 3, 7 or 10 d. For treatment, either DAFT (2.5 μM) or FGF (20 ng/ml) or control medium containing only DMSO (0.1%) were applied for 7d on spheres and 48 h on OC explants. Cells were harvested and further analyzed by immunohistochemistry. Axiovision 4.3 was used for data acquisition and the number of cells was quantified with Metamorph software. Cell counts were expressed as mean±standard deviation. An average of 1,000 cells were counted for spheres or 100 μm for OC explants. Origin software was used for statistical evaluation. Cell detection techniques are described in the Examples above.
Samples were obtained and detected using methods described above. Organ of Corti explants (P1-P2) from Atoh1-GFP mice were contacted with DAPT, FGF2, or a combination of both for 48 h. Hair cell number was then assessed.

Atoh1 = Atoh1 expression by quantitative RT-PCR in OC-1 cells; type: cell-based, mouse; conditions: OC-1 cells treated with HDAC inhibitors
Procedure: Atoh1 levels were measured in vitro in OC-1 cells or spheres by quantitative RT-PCR. For RT-PCR. total RNA was extracted from OC-1 cells or spheres treated with RAPT, FGF2, or DART and RNAi with the RiNeasy Maxi Kit (Qiagen) according to the manufacturer's instructions. RNA was denatured at 65° C. for 5 min. For reverse transcription, ImProm II (Promega) was used with random hexamers. Reverse transcription conditions were 25° C. for 5 min followed by 42° C. for 60 min. Reactions were terminated at 70° C. for 15 min. c: ANAs were mixed with Platinum quantitative PCR Supermix ROX with UDG (Invitrogen) and primers for Atoh1, Pax2 or Sox2 (ABI) according to the manufacturer's instructions. Gene expression was measured relative to 18S RNA. Samples were analyzed in 96 well plates in triplicate by quantitative PCR (Applied Biosystems 7900HT) using the following conditions: initial denaturation at 95° C. for 2 min, denaturation at 95° C. for 40 s and annealing/extension at 60′ C for 35 s for 45 cycles.
To address whether interaction with DNA-binding co-factors influenced bound histones at the Atoh1 locus, drugs that block histone modifications were used.

Row | Compound | new hair cells in organ of Corti explants (organ of Corti explants) | numbers of hair cells (organ of Corti explants; postnatal explants, DAPT with control siRNA) | expression of Atoh1, qRT-PCR relative to 18S RNA (Atoh1)
1 | FGF2: growth factor used to activate Pax2 expression in inner ear stem cells; 20 ng/ml | additional outer hair cells were seen in the apex |  | 
2 | C[C@H](NC(=O)Cc1cc(F)cc(F)c1)C(=O)N[C@H](C(=O)OC(C)(C)C)c1ccccc1 [DAPT] | additional outer hair cells were seen in the apex | Increased numbers of hair cells | 
3 | CC(/C=C/C(=O)NO)=C\[C@@H](C)C(=O)c1ccc(N(C)C)cc1 [TSA, Trichostatin A] |  |  | increased expression of Atoh1
4 | CCCC(CCC)C(=O)O [VPA, valproic acid] |  |  | increased expression of Atoh1
